Results on one compound are retold here after publication PMC12036814 (Angewandte Chemie (International Ed. in English), 2025).

Assay in all cases: Thermal protein profiling (TPP) in intact HEK293 cells
Format in all cases: cell-based
Holding throughout (settings): 1 h

Assay [1] deals with T1, MAIP1 (Homo sapiens, UniProt Q8WWC4).
T1 construct: endogenous in cells; host or cells: HEK293
T1 sequence (Q8WWC4 97-291): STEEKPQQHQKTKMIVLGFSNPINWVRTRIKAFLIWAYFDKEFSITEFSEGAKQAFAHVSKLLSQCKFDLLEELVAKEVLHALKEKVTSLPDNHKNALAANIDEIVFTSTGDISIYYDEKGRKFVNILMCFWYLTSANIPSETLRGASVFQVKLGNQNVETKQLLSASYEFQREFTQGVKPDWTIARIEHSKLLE
Here is the method:
(§1) incubated in a thermoshaker (600 rpm, 16 h, 37 °C). The digest was stopped by adding 10 μL formic
(§2) acid (FA) and vortexing followed by centrifugation (12,000 ×g, 3 min, room temperature). 50 mg
(§3) SepPak C18 columns (Waters, Milford, USA, Cat# WAT054960) were equilibrated by gravity flow two
(§4) times with 1 mL acetonitrile and three times with 1 mL aqueous 0.1% trifluoroacetic acid (TFA) solution.
(§5) Subsequently, the samples were loaded by gravity flow, washed three times with 1 mL aqueous 0.1%
(§6) TFA solution and once with 0.5 mL aqueous 0.5% formic acid (F A) solution. Elution of peptides into
(§7) new 2.0 mL Protein LoBind Eppendorf tubes was performed by two times addition of 250 μL elution
(§8) buffer (80% acetonitrile, 0.5% FA) by gravity flow followed by 250 μL elution buffer by vacuum flow
(§9) until all liquid was eluted from the column. The eluates were lyophilized. Before MS measurement the
(§10) (brief centrifugation after each step).
(§11) Thermal protein profiling (TPP)
(§12) The experiment was performed similarly to TPP-TR experiments described by Franken et al. with minor
(§13) modifications.5 HEK293 cells were grown in 8 T175 flasks to approx. 80-90% confluency. Per replicate
(§14) volume of 0.1 N HCl as vehicle control. Per condition two replicates were used, leading to a total of 8
(§15) T175 flasks. The cells were washed with PBS, detached with accutase, the two flask per replicate
(§16) condition combined and the cells pelletized (500 ×g, 3 min, r.t.). The medium was removed and each
(§17) pellet (Cipro #1, Cipro #2, Ctrl. #1, Ctrl #2) washed twice with cold PBS. Each pellet was resuspended
(§18) depending on the sample. The cell suspension of each sample was distributed into 10 PCR tubes
(§19) (100 µL per tube), resulting in 10 stripes á 4 tubes (2×2 conditions, 10 temperature points). The PCR
(§20) tubes were subjected to the temperature gradient using a PCR cycler.
(§21) limitations, two separate programs had to be run to cover the desired temperature range (see
(§22) Table S4). The PCR tubes were heat-treated according to the two programs for 3 min and directly snap
(§23) frozen in liquid nitrogen.
(§24) manufacturer instructions.

The target of assay [2] is T2, TRIM26 (Homo sapiens, UniProt Q12899).
T2 construct: endogenous in cells; host or cells: HEK293
T2 sequence (Q12899 1-539): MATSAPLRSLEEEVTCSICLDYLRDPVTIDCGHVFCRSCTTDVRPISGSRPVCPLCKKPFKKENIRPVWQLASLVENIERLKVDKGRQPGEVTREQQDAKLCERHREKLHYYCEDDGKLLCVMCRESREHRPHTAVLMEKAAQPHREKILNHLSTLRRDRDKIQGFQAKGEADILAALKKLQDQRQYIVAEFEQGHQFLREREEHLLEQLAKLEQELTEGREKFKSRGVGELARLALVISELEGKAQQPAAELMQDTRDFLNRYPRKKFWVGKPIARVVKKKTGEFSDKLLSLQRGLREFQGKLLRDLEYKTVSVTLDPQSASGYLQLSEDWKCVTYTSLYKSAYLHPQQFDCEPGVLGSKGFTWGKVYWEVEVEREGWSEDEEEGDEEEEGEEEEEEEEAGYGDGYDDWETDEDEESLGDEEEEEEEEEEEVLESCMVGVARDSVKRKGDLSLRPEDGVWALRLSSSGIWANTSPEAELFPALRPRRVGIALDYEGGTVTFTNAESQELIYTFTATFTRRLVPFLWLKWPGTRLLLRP
Here is the method:
as §1, §2, §3, §4, §5, §6, §7, §8, §9, §10, §11, §12, §13, §14, §15, §16, §17, §18, §19, §20, §21, §22, §23, §24

Assay [3] deals with T3, RAP1A (Homo sapiens, UniProt P62834).
T3 construct: endogenous in cells; host or cells: HEK293
T3 sequence (P62834 1-184): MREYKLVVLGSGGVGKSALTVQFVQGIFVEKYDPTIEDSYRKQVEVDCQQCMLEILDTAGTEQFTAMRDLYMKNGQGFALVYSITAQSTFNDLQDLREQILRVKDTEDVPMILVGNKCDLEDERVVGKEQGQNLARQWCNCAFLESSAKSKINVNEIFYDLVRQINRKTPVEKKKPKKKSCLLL
How it is done: as §1, §2, §3, §4, §5, §6, §7, §8, §9, §10, §11, §12, §13, §14, §15, §16, §17, §18, §19, §20, §21, §22, §23, §24

In assay [4] the target is T4, FAM171A2 (Homo sapiens, UniProt A8MVW0).
T4 construct: endogenous in cells; host or cells: HEK293
Here is the method:
as §1, §2, §3, §4, §5, §6, §7, §8, §9, §10, §11, §12, §13, §14, §15, §16, §17, §18, §19, §20, §21, §22, §23, §24

In assay [5] the target is T5, ULK3 (Homo sapiens, UniProt Q6PHR2).
T5 construct: endogenous in cells; host or cells: HEK293
T5 sequence (Q6PHR2 1-472): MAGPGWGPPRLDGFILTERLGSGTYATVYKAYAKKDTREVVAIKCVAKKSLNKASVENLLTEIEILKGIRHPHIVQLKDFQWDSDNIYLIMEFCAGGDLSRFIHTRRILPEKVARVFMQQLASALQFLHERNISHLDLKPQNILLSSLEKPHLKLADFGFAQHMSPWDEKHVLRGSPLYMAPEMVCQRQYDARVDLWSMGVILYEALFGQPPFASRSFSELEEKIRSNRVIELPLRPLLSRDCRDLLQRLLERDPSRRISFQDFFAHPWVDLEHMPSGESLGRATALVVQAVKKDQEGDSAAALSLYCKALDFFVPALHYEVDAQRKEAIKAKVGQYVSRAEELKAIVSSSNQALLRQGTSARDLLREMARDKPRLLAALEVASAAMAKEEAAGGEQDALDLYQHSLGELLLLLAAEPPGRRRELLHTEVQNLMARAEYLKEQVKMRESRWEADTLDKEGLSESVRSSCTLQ
Here is the method: as §1, §2, §3, §4, §5, §6, §7, §8, §9, §10, §11, §12, §13, §14, §15, §16, §17, §18, §19, §20, §21, §22, §23, §24

Where two headings read alike, the source gives them in different places.

The term ΔTm denotes the change in melting temperature against a reference sample. Take `O=C(O)c1cn(C2CC2)c2cc(N3CCNCC3)c(F)cc2c1=O` [Ciprofloxacin]: the ΔTm at 70 µM worked out at 2.28 °C in assay [1] (read-out: ΔTm Rep. 1); 3.73 °C in assay [1] (read-out: ΔTm Rep. 2); 3.54 °C in assay [2] (read-out: ΔTm Rep. 1); 3.88 °C in assay [2] (read-out: ΔTm Rep. 2); 1.79 °C in assay [3] (read-out: ΔTm Rep. 1); 2.89 °C in assay [3] (read-out: ΔTm Rep. 2). In addition, the ΔTm at 70 µM in assay [4] (read-out: ΔTm Rep. 1) was 5.82 °C; in assay [4] (read-out: ΔTm Rep. 2), 3.92 °C; in assay [5] (read-out: ΔTm Rep. 1) it was 1.72 °C; in assay [5] (read-out: ΔTm Rep. 2), 4.39 °C.
